{
  "source": "patent US6448204B1",
  "about": "“Herbicidal 2-aryloxy-4-methyl-6-pyrazol-1-yl-pyridines” (BASF Aktiengesellschaft, priority 1999, dated 2002)",
  "assay_in_all_cases": "Pre-emergence test",
  "format_in_all_cases": "in vivo",
  "conditions_in_all_cases": "3 weeks after treatment",
  "key": {"[1]": {"tested_on": "Alopecurus myosuroides (ALOMY)", "description": "(§1) To evaluate their herbicidal activity, compounds according to the invention are tested using a representative range of plants: […] The pre-emergence tests involve spraying a liquid formulation of the compound onto the soil in which the seeds of the plant species mentioned above has recently been sown. The soil used in the tests is a prepared horticultural loam. […] In these tests untreated sown soil are used as controls."}, "Galium aparine (GALAP)": {"tested_on": "Galium aparine (GALAP)", "description": "as §1"}, "Lamium purpureum (LAMPU)": {"tested_on": "Lamium purpureum (LAMPU)", "description": "as §1"}, "[2]": {"tested_on": "Echinochloa crus-galli (ECHCG)", "description": "as §1"}, "[3]": {"tested_on": "Cassia obtusifolia (CASOB)", "description": "as §1"}, "[4]": {"tested_on": "Lolium multiflorum (LOLMU)", "description": "as §1"}, "[5]": {"tested_on": "Digitaria sanguinalis (DIGSA)", "description": "as §1"}, "Stellaria media (STEME)": {"tested_on": "Stellaria media (STEME)", "description": "as §1"}, "[6]": {"tested_on": "Abutilon theophrasti (ABUTH)", "description": "as §1"}, "Setaria viridis (SETVI)": {"tested_on": "Setaria viridis (SETVI)", "description": "as §1"}, "[7]": {"tested_on": "Ipomoea hederacea (IPOHE)", "description": "as §1"}, "[8]": {"tested_on": "Matricaria inodora (MATIN)", "description": "as §1"}, "[9]": {"tested_on": "Ambrosia artemisifolia (AMBEL)", "description": "as §1"}},
  "data": [
    {"smiles": "Cc1cc(Oc2cc(C(F)(F)F)nn2C)nc(-n2ccc(C(F)(F)F)n2)c1", "note": "[Example 2, 4-methyl-2-(-3-trifluoromethyl-1H-prazol-1-yl)-6-(1-methyl-3-trifluoromethyl-pyrazol-5-yloxy)-pyridine]", "values": [
      {"measurement": "Assessment rating ALOMY (pre-emergence application)", "setting": "[1]; 0.013 kg/ha", "value": "2 (2 - Slight effect)"},
      {"measurement": "Assessment rating ALOMY (pre-emergence application)", "setting": "[1]; 0.025 kg/ha", "value": "5 (5 - Definite injury)"},
      {"measurement": "Assessment rating ALOMY (pre-emergence application)", "setting": "[1]; 0.100 kg/ha", "value": "8 (8 - Approaching complete kill)"},
      {"measurement": "Assessment rating ALOMY (pre-emergence application)", "setting": "[1]; 0.400 kg/ha", "value": "8 (8 - Approaching complete kill)"},
      {"measurement": "Assessment rating GALAP (pre-emergence application)", "setting": "Galium aparine (GALAP); 0.013 kg/ha", "value": "1 (1 - Trace effect)"},
      {"measurement": "Assessment rating GALAP (pre-emergence application)", "setting": "Galium aparine (GALAP); 0.025 kg/ha", "value": "3 (3 - Moderate effect)"},
      {"measurement": "Assessment rating GALAP (pre-emergence application)", "setting": "Galium aparine (GALAP); 0.100 kg/ha", "value": "6 (6 - Herbicidal effect)"},
      {"measurement": "Assessment rating GALAP (pre-emergence application)", "setting": "Galium aparine (GALAP); 0.400 kg/ha", "value": "8 (8 - Approaching complete kill)"},
      {"measurement": "Assessment rating LAMPU (pre-emergence application)", "setting": "Lamium purpureum (LAMPU); 0.013 kg/ha", "value": "8 (8 - Approaching complete kill)"},
      {"measurement": "Assessment rating LAMPU (pre-emergence application)", "setting": "Lamium purpureum (LAMPU); 0.025 kg/ha", "value": "8 (8 - Approaching complete kill)"},
      {"measurement": "Assessment rating LAMPU (pre-emergence application)", "setting": "Lamium purpureum (LAMPU); 0.100 kg/ha", "value": "9 (9 - Complete kill)"},
      {"measurement": "Assessment rating LAMPU (pre-emergence application)", "setting": "Lamium purpureum (LAMPU); 0.400 kg/ha", "value": "9 (9 - Complete kill)"},
      {"measurement": "Assessment rating ECHCG (pre-emergence application)", "setting": "[2]; 0.013 kg/ha", "value": "1 (1 - Trace effect)"},
      {"measurement": "Assessment rating ECHCG (pre-emergence application)", "setting": "[2]; 0.025 kg/ha", "value": "2 (2 - Slight effect)"},
      {"measurement": "Assessment rating ECHCG (pre-emergence application)", "setting": "[2]; 0.100 kg/ha", "value": "8 (8 - Approaching complete kill)"},
      {"measurement": "Assessment rating ECHCG (pre-emergence application)", "setting": "[2]; 0.400 kg/ha", "value": "8 (8 - Approaching complete kill)"},
      {"measurement": "Assessment rating CASOB (pre-emergence application)", "setting": "[3]; 0.013 kg/ha", "value": "0 (0 - No effect)"},
      {"measurement": "Assessment rating CASOB (pre-emergence application)", "setting": "[3]; 0.025 kg/ha", "value": "4 (4 - Injury)"},
      {"measurement": "Assessment rating CASOB (pre-emergence application)", "setting": "[3]; 0.100 kg/ha", "value": "8 (8 - Approaching complete kill)"},
      {"measurement": "Assessment rating CASOB (pre-emergence application)", "setting": "[3]; 0.400 kg/ha", "value": "9 (9 - Complete kill)"},
      {"measurement": "Assessment rating LOLMU (pre-emergence application)", "setting": "[4]; 0.013 kg/ha", "value": "6 (6 - Herbicidal effect)"},
      {"measurement": "Assessment rating LOLMU (pre-emergence application)", "setting": "[4]; 0.025 kg/ha", "value": "6 (6 - Herbicidal effect)"},
      {"measurement": "Assessment rating LOLMU (pre-emergence application)", "setting": "[4]; 0.100 kg/ha", "value": "8 (8 - Approaching complete kill)"},
      {"measurement": "Assessment rating LOLMU (pre-emergence application)", "setting": "[4]; 0.400 kg/ha", "value": "8 (8 - Approaching complete kill)"},
      {"measurement": "Assessment rating DIGSA (pre-emergence application)", "setting": "[5]; 0.013 kg/ha", "value": "9 (9 - Complete kill)"},
      {"measurement": "Assessment rating DIGSA (pre-emergence application)", "setting": "[5]; 0.025 kg/ha", "value": "9 (9 - Complete kill)"},
      {"measurement": "Assessment rating DIGSA (pre-emergence application)", "setting": "[5]; 0.100 kg/ha", "value": "9 (9 - Complete kill)"},
      {"measurement": "Assessment rating DIGSA (pre-emergence application)", "setting": "[5]; 0.400 kg/ha", "value": "9 (9 - Complete kill)"},
      {"measurement": "Assessment rating STEME (pre-emergence application)", "setting": "Stellaria media (STEME); 0.013 kg/ha", "value": "6 (6 - Herbicidal effect)"},
      {"measurement": "Assessment rating STEME (pre-emergence application)", "setting": "Stellaria media (STEME); 0.025 kg/ha", "value": "9 (9 - Complete kill)"},
      {"measurement": "Assessment rating STEME (pre-emergence application)", "setting": "Stellaria media (STEME); 0.100 kg/ha", "value": "9 (9 - Complete kill)"},
      {"measurement": "Assessment rating STEME (pre-emergence application)", "setting": "Stellaria media (STEME); 0.400 kg/ha", "value": "9 (9 - Complete kill)"},
      {"measurement": "Assessment rating ABUTH (pre-emergence application)", "setting": "[6]; 0.013 kg/ha", "value": "1 (1 - Trace effect)"},
      {"measurement": "Assessment rating ABUTH (pre-emergence application)", "setting": "[6]; 0.025 kg/ha", "value": "3 (3 - Moderate effect)"},
      {"measurement": "Assessment rating ABUTH (pre-emergence application)", "setting": "[6]; 0.100 kg/ha", "value": "8 (8 - Approaching complete kill)"},
      {"measurement": "Assessment rating ABUTH (pre-emergence application)", "setting": "[6]; 0.400 kg/ha", "value": "9 (9 - Complete kill)"},
      {"measurement": "Assessment rating SETVI (pre-emergence application)", "setting": "Setaria viridis (SETVI); 0.013 kg/ha", "value": "9 (9 - Complete kill)"},
      {"measurement": "Assessment rating SETVI (pre-emergence application)", "setting": "Setaria viridis (SETVI); 0.025 kg/ha", "value": "9 (9 - Complete kill)"},
      {"measurement": "Assessment rating SETVI (pre-emergence application)", "setting": "Setaria viridis (SETVI); 0.100 kg/ha", "value": "9 (9 - Complete kill)"},
      {"measurement": "Assessment rating SETVI (pre-emergence application)", "setting": "Setaria viridis (SETVI); 0.400 kg/ha", "value": "9 (9 - Complete kill)"},
      {"measurement": "Assessment rating IPOHE (pre-emergence application)", "setting": "[7]; 0.013 kg/ha", "value": "1 (1 - Trace effect)"},
      {"measurement": "Assessment rating IPOHE (pre-emergence application)", "setting": "[7]; 0.025 kg/ha", "value": "3 (3 - Moderate effect)"},
      {"measurement": "Assessment rating IPOHE (pre-emergence application)", "setting": "[7]; 0.100 kg/ha", "value": "6 (6 - Herbicidal effect)"},
      {"measurement": "Assessment rating IPOHE (pre-emergence application)", "setting": "[7]; 0.400 kg/ha", "value": "9 (9 - Complete kill)"},
      {"measurement": "Assessment rating MATIN (pre-emergence application)", "setting": "[8]; 0.013 kg/ha", "value": "7 (7 - Good herbicidal effect)"},
      {"measurement": "Assessment rating MATIN (pre-emergence application)", "setting": "[8]; 0.025 kg/ha", "value": "8 (8 - Approaching complete kill)"},
      {"measurement": "Assessment rating MATIN (pre-emergence application)", "setting": "[8]; 0.100 kg/ha", "value": "9 (9 - Complete kill)"},
      {"measurement": "Assessment rating MATIN (pre-emergence application)", "setting": "[8]; 0.400 kg/ha", "value": "9 (9 - Complete kill)"},
      {"measurement": "Assessment rating AMBEL (pre-emergence application)", "setting": "[9]; 0.013 kg/ha", "value": "4 (4 - Injury)"},
      {"measurement": "Assessment rating AMBEL (pre-emergence application)", "setting": "[9]; 0.025 kg/ha", "value": "7 (7 - Good herbicidal effect)"},
      {"measurement": "Assessment rating AMBEL (pre-emergence application)", "setting": "[9]; 0.100 kg/ha", "value": "8 (8 - Approaching complete kill)"}
    ]}
  ]
}
